For two compounds, IC50 and viability, T/C results are on record in PubChem BioAssay AID1845195 (Molecular Pharmacology Branch, DTP, NCI, 2023).

Where only a bound is given, the exact number is not on record here.

The assay relates to 156681-154-R-J1 tumor spheroid viability. Kind of assay: Anticancer human tumor 156681-154-R-J1 patient-derived melanoma cell line growth inhibition. Particulars: spheroids with HUVEC and MSC; for viability, T/C: stronger effect = lower value. The text has this: Multicellular complex tumor spheroid response to DNA repair inhibitors in combination with DNA-damaging drugs
This study explores the anticancer activities of DNA-damaging drugs and inhibitors of DNA damage repair, both as single agents and in combinations. Complex tumor spheroids comprised of malignant cells, endothelial cells and mesenchymal stem cells served as an in vitro model for human solid tumors. This model system incorporates physiologically relevant features and patient-derived or established malignant cell lines with clinically relevant genetic alterations from many tumor types. Twenty-six patient-derived or established malignant cell lines were evaluated representing sarcoma, melanoma, small cell lung cancer (SCLC), non-small cell lung cancer (NSCLC), as well as bladder, ovarian and pancreatic cancers. The concentration ranges selected for each drug and investigational agent were based upon clinically achievable concentrations if the clinical Cmax of the agent was known.
Compounds. The drugs and compounds olaparib (NSC753686), talazoparib (NSC767125), berzosertib (NSC777718), elimusertib (NSC800525), nedisertib (NSC802822), VX-984 (NSC792969), AZD-1390 (NSC803789), temozolomide (NSC362856), topotecan (NSC609699), trabectedin (NSC813783), staurosporine (NSC755774), and gemcitabine (NSC613327) were obtained from the National Cancer Institute (NCI) Developmental Therapeutics Program Chemical Repository. The FDA-approved anticancer drug set is available from the Developmental Therapeutics Program at https://dtp.cancer.gov/organization/dscb/obtaining/available_plates.htm. […] The stock solutions were prepared in dimethyl sulfoxide (DMSO, Sigma-Aldrich, St. Louis, MO, cat. D2650) at 400-fold the tested concentration and stored at -70 degrees C. Prior to their use, the stock solutions were diluted in fresh medium and the final DMSO concentration in the assay was 0.25% (v/v). All drugs and investigational agents were tested over a range starting from a high concentration at or near the clinical Cmax and decreasing in half-log increments. If the clinical Cmax for an agent had not been determined, the highest concentration tested was 10 microM.
Cell Lines. The patient-derived cancer cell (PDC) lines: 156681-154-R-J1-PDC, 283228-195-R-J1-PDC, 287954-098-R-J1-PDC, 292921-168-R-J2-PDC, 349418-098-R-PDC, 425362-245-T-J1-PDC, 556581-035-R-J1-PDC, and BL0293-F563-PDC were received from the NCI Patient-Derived Models Repository (PDMR, https://pdmr.cancer.gov). The established cell lines HS-SY-2 (RRID:CVCL_8719), MPNST, and SYO-1 (RRID:CVCL_7146) were obtained from the Sloan Kettering Institute. The alveolar soft parts sarcoma cell line ASPS-1 (RRID:CVCL_S738) was established at the NCI and grown from internal seed stocks. The following established cell lines were purchased from the American Type Culture Collection (ATCC, Manassas, VA): G-401 (ATCC, cat. CRL-1441, RRID:CVCL_0270), SW982 (ATCC, cat. HTB-93, RRID:CVCL_1734), VA-ES-BJ (ATCC, cat. CRL-2138, RRID:CVCL_1785), NCI-H719 (ATCC, cat. CRL-5837, RRID:CVCL_1582), NCI-H196 (ATCC, cat. CRL-5823, RRID:CVCL_1509), NCI-H841 (ATCC, cat. CRL-5845, RRID:CVCL_1595), NCI-H1618 (ATCC, cat. CRL-5879, RRID:CVCL_1480), NCI-H1876 (ATCC, cat. CRL-5902, RRID:CVCL_1503), DMS 114 (ATCC, cat. CRL-2066; RRID:CVCL_1174), NCI-H211 (ATCC, cat. CRL-5824; RRID:CVCL_1529), and SW 1271 (ATCC, cat. CRL-2177, RRID:CVCL_1716). The small cell lung cancer cell line COR-L88 was purchased from Sigma-Aldrich (cat. 92031917-1VL, RRID:CVCL_1141). The non-small cell lung cancer cell lines NCI-H226 (RRID:CVCL_1544) and NCI-H322M (RRID:CVCL_1557) were established at the NCI and grown from internal seed stocks. Pooled donor human umbilical vein endothelial cells (HUVEC, Lonza, cat. CC-2519) and human mesenchymal stem cells (hMSC, Lonza, cat. PT-2501) were purchased from Lonza (Walkersville, MD).
Cell Culture. All cells were maintained in an incubator at 37 degrees C and 5% CO2 with 95% humidity. […]
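Further: spheroids exposed to compounds for 7 days before readout.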
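Wherever viability, T/C is given: percent of vehicle control viability where 100% = DMSO-treated spheroids.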

For orientation: IC50 means the concentration needed to halve the response being measured. One may read the viability, T/C as the ratio of treated to control. Turning to `Cn1ncnc1[C@H]1c2n[nH]c(=O)c3cc(F)cc(c23)N[C@@H]1c1ccc(F)cc1` + COc1cc2c(cc1O)CCNC21CSC2c3c(OC(C)=O)c(C)c4c(c3C(COC1=O)N1C(O)C3Cc5cc(C)c(OC)c(O)c5C(C21)N3C)OCO4, the IC50 runs as follows: (curve of first compound, second compound 30 pM) 1440 nM; (curve of first compound, second compound 94.9 pM) 688 nM; (curve of first compound, second compound 0.0003 µM) 97 nM; (curve of first compound, second compound 0.000949 µM) less than 9.49 nM; (curve of first compound, second compound 0.003 µM) less than 9.49 nM. Moreover, the viability, T/C is, setting by setting: (second compound 30 pM, first compound 0.00949 µM) 82%; (second compound 30 pM, first compound 0.03 µM) 91.7%; (second compound 30 pM, first compound 0.0949 µM) 97.9%; (second compound 30 pM, first compound 0.3 µM) 72.4%; (second compound 30 pM, first compound 0.949 µM) 70.9%; (second compound 30 pM, first compound 3 µM) 19.1%. The viability, T/C reads like this: (second compound 94.9 pM, first compound 0.00949 µM) 97.5%; (second compound 94.9 pM, first compound 0.03 µM) 80.7%; (second compound 94.9 pM, first compound 0.0949 µM) 91.9%; (second compound 94.9 pM, first compound 0.3 µM) 73.3%; (second compound 94.9 pM, first compound 0.949 µM) 40.8%; (second compound 94.9 pM, first compound 3 µM) 14%. Further, the viability, T/C is 48.5% (second compound 0.0003 µM, first compound 0.00949 µM); 53.7% (second compound 0.0003 µM, first compound 0.03 µM); 51% (second compound 0.0003 µM, first compound 0.0949 µM); 36.6% (second compound 0.0003 µM, first compound 0.3 µM); 15.2% (second compound 0.0003 µM, first compound 0.949 µM); 11.3% (second compound 0.0003 µM, first compound 3 µM). Besides, the viability, T/C was 10% (second compound 0.000949 µM, first compound 0.00949 µM); 4.38% (second compound 0.000949 µM, first compound 0.03 µM); 4.05% (second compound 0.000949 µM, first compound 0.0949 µM); 2.68% (second compound 0.000949 µM, first compound 0.3 µM); 1% (second compound 0.000949 µM, first compound 0.949 µM); 0.14% (second compound 0.000949 µM, first compound 3 µM). The viability, T/C is 0.15% (second compound 0.003 µM, first compound 0.00949 µM); 0.14% (second compound 0.003 µM, first compound 0.03 µM); 0.55% (second compound 0.003 µM, first compound 0.0949 µM); 0.12% (second compound 0.003 µM, first compound 0.3 µM); 0.13% (second compound 0.003 µM, first compound 0.949 µM); 0.18% (second compound 0.003 µM, first compound 3 µM).

`CC[C@@]1(O)C(=O)OCc2c1cc1n(c2=O)Cc2cc3c(CN(C)C)c(O)ccc3nc2-1`: the viability, T/C reads like this: (compound 0.00949 µM) 85.4% [middle of 10 runs]; (compound 0.0949 µM) 22.1% [middle of 10 runs]; (compound 0.3 µM) 31.3% [middle of 10 runs]. Besides, the half-inhibitory concentration (IC50) runs as follows: (compound alone, run of 10/17/2019) 39.5 nM [middle of 5 runs]; (compound alone, run of 10/25/2019) 45.2 nM [middle of 5 runs].
